Source: PMC3605045, “GH1-family 6-P-β-glucosidases from human microbiome lactic acid bacteria” (Acta Crystallographica Section D: Biological Crystallography, 2013)

Assays:
LpPgb1 = biological target: T1, LpPgb1 (Lactiplantibacillus plantarum, UniProt F9UU25); experiment: G6PDH-coupled NADPH absorbance assay ([…] nm); assay type: biochemical; conditions: 0.1 M HEPES-NaOH pH 8.0, 2 mM NADP+, 298 K; native enzyme 0.02 µM
T1 construct: gene pbg1; full length Met1-Glu478, 478 residues, ~55 kDa, homodimer; His6 cut by TEV, SNA- left at N-terminus; E. coli BL21 (DE3) Magic, pMCSG7

SmBgl = biological target: T2, SmBgl (Streptococcus mutans, UniProt Q8DT00); experiment: X-ray crystal structure, […] Å; assay type: binding; conditions: crystallised with 5 mM 6'-P-gentiobiose; product in phosphate and -1 subsites
T2 construct: gene bgl; full length, 477 residues, ~55 kDa, homodimer; His6 cut by TEV, SNA- left at N-terminus; E. coli BL21 (DE3) Magic, pMCSG7; SeMet-labelled protein in kinetic assays

Compound	G6PDH-coupled NADPH absorbance assay (340 nm) (LpPgb1)	X-ray crystal structure, 1.48 Å (SmBgl)
O=P(O)(O)OC[C@H]1O[C@@H](O[C@H]2[C@H](O)[C@@H](O)C(O)O[C@@H]2CO)[C@H](O)[C@@H](O)[C@@H]1O (stereo partly drawn) [6′-P-cellobiose]	Both enzymes showed hydrolytic activity towards all of these substrates	
O=P(O)(O)OC[C@H]1O[C@@H](OC[C@H]2OC(O)[C@H](O)[C@@H](O)[C@@H]2O)[C@H](O)[C@@H](O)[C@@H]1O (stereo partly drawn) [6′-P-gentiobiose]	Both enzymes showed hydrolytic activity towards all of these substrates	
O=P(O)(O)OC[C@H]1OC(O)[C@H](O)[C@@H](O)[C@@H]1O (stereo partly drawn) [BG6, 6-P-β-glucose]		two BG6 ligands
